Data taken from PubChem BioAssay (NCI).
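Exposure lasted 48 hours, with cells grown in 96-well plates and compounds tested at five concentrations. TGI denotes the concentration required for complete inhibition of growth.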

Experiments:
Assay in all cases: inhibition of tumour cell growth, NCI panel, 48 h
[1] = tested on: NCI-H460 lung
[2] = tested on: LXFL 529 NSCLC
[3] = tested on: OVCAR-8 ovarian
[4] = tested on: UO-31 renal
[5] = tested on: OVCAR-5 ovarian
[6] = tested on: IGROV1 ovarian
[7] = tested on: KM12 colon
[8] = tested on: SF-268 CNS
[9] = tested on: EKVX NSCLC
[10] = tested on: HCT-116 colon
[11] = tested on: SW-620 colon
[12] = tested on: XF 498 CNS
[13] = tested on: RXF 393 renal
[14] = tested on: SNB-75 CNS
[15] = tested on: CAKI-1 renal
[16] = tested on: MOLT-4 leukemia
[17] = tested on: M19-MEL melanoma
[18] = tested on: SK-OV-3 ovarian
[19] = tested on: MALME-3M melanoma
[20] = tested on: SF-539 CNS
[21] = tested on: OVCAR-4 ovarian
[22] = tested on: DMS 114 small cell lung
[23] = tested on: A549 NSCLC
[24] = tested on: SK-MEL-2 melanoma
[25] = tested on: HOP-92 NSCLC
[26] = tested on: TK-10 renal
[27] = tested on: DLD-1 colon
[28] = tested on: LOX IMVI melanoma
[29] = tested on: UACC-62 melanoma
[30] = tested on: SNB-19 CNS
[31] = tested on: HCC-2998 colon
[32] = tested on: K-562 leukemia
[33] = tested on: A498 renal
[34] = tested on: SN12C renal
[35] = tested on: SK-MEL-28 melanoma
[36] = tested on: NCI-H522 lung
[37] = tested on: SNB-78 CNS
[38] = tested on: ACHN renal
[39] = tested on: CCRF-CEM leukemia
[40] = tested on: UACC-257 melanoma
[41] = tested on: HOP-62 NSCLC
[42] = tested on: RPMI-8226 leukemia
[43] = tested on: U251 CNS
[44] = tested on: HT29 colon
[45] = tested on: SF-295 CNS
[46] = tested on: NCI-H23 lung
[47] = tested on: 786-0 renal
[48] = tested on: HCT-15 colon
[49] = tested on: M14 melanoma
[50] = tested on: KM20L2 colon
[51] = tested on: OVCAR-3 ovarian
[52] = tested on: SK-MEL-5 melanoma
[53] = tested on: COLO 205 colon
[54] = tested on: DMS 273 small cell lung
[55] = tested on: HL-60(TB) leukemia
[56] = tested on: NCI-H226 lung

Clc1ccc(-c2nnc3c4nnc(-c5ccc(Cl)cc5Cl)n4c4ccccc4n23)c(Cl)c1
TGI [1]: > 100 µM | TGI [2]: > 100 µM | TGI [3]: > 100 µM | TGI [4]: > 100 µM | TGI [5]: > 100 µM | TGI [6]: > 100 µM | TGI [7]: > 100 µM | TGI [8]: > 100 µM | TGI [9]: > 100 µM | TGI [10]: > 100 µM | TGI [11]: > 100 µM | TGI [12]: > 100 µM | TGI [13]: > 100 µM | TGI [14]: 63.2 µM | TGI [15]: > 100 µM | TGI [16]: > 100 µM | TGI [17]: > 100 µM | TGI [18]: > 100 µM | TGI [19]: > 100 µM | TGI [20]: > 100 µM | TGI [21]: > 100 µM | TGI [22]: > 100 µM | TGI [23]: > 100 µM | TGI [24]: > 100 µM | TGI [25]: > 100 µM | TGI [26]: > 100 µM | TGI [27]: > 100 µM | TGI [28]: > 100 µM | TGI [29]: > 100 µM | TGI [30]: > 100 µM | TGI [31]: > 100 µM | TGI [32]: > 100 µM | TGI [33]: > 100 µM | TGI [34]: > 100 µM | TGI [35]: > 100 µM | TGI [36]: > 100 µM | TGI [37]: > 100 µM | TGI [38]: > 100 µM | TGI [39]: > 100 µM | TGI [40]: > 100 µM | TGI [41]: > 100 µM | TGI [42]: > 100 µM | TGI [43]: > 100 µM | TGI [44]: > 100 µM | TGI [45]: > 100 µM | TGI [46]: > 100 µM | TGI [47]: > 100 µM | TGI [48]: > 100 µM | TGI [49]: > 100 µM | TGI [50]: > 100 µM | TGI [51]: > 100 µM | TGI [52]: > 100 µM | TGI [53]: > 100 µM | TGI [54]: > 100 µM

CCOC(=O)CC[C@H](NC(=O)c1[nH]cnc1/N=N/N(C)C)C(=O)OCC
TGI [1]: > 100 µM | TGI [2]: > 100 µM | TGI [3]: > 100 µM | TGI [4]: > 100 µM | TGI [6]: > 100 µM | TGI [7]: > 100 µM | TGI [8]: > 100 µM | TGI [9]: > 100 µM | TGI [10]: > 100 µM | TGI [11]: > 100 µM | TGI [12]: > 100 µM | TGI [15]: > 100 µM | TGI [16]: > 100 µM | TGI [17]: > 100 µM | TGI [18]: > 100 µM | TGI [19]: > 100 µM | TGI [20]: > 100 µM | TGI [21]: > 100 µM | TGI [22]: > 100 µM | TGI [23]: > 100 µM | TGI [24]: > 100 µM | TGI [55]: > 100 µM | TGI [27]: > 100 µM | TGI [28]: > 100 µM | TGI [29]: > 100 µM | TGI [30]: > 100 µM | TGI [31]: > 100 µM | TGI [32]: > 100 µM | TGI [56]: > 100 µM | TGI [33]: > 100 µM | TGI [34]: > 100 µM | TGI [35]: > 100 µM | TGI [36]: > 100 µM | TGI [38]: > 100 µM | TGI [39]: > 100 µM | TGI [40]: > 100 µM | TGI [41]: > 100 µM | TGI [42]: > 100 µM | TGI [43]: > 100 µM | TGI [44]: > 100 µM | TGI [45]: > 100 µM | TGI [46]: > 100 µM | TGI [47]: > 100 µM | TGI [48]: > 100 µM | TGI [49]: > 100 µM | TGI [51]: > 100 µM | TGI [52]: > 100 µM | TGI [53]: > 100 µM | TGI [54]: > 100 µM
